Values of other authors as cited in patent publication US12144787B2, “Method of treating patients with a mutation in cyclin-dependent kinase-like 5 (CDKL5)” (ZOGENIX INTERNATIONAL LIMITED, priority 2019, dated 2024).

Assays:
[1] = system: compulsive respiratory stereotypies; conditions: open label, 8 children; subset of patients
[2] = system: refractory epilepsy with self-induced seizures; conditions: children with refractory epilepsy; dose 0.5 to 1 mg/kg/day
[3] = system: pattern sensitivity-induced seizures; conditions: one child, seizures resistant to anticonvulsive treatment
[4] = system: self-induced photosensitive seizures; conditions: four cases; patients staring into bright lights or the sun

For `CCNC(C)Cc1cccc(C(F)(F)F)c1` (racemic) [fenfluramine, (RS)—N-ethyl-1-[3-(trifluoromethyl)phenyl]propan-2-amine], the “effect on compulsive respiratory stereotypies” value [1] is given as “some beneficial effects”, the “number of seizures experienced by the patients” value [2] is given as “reduction in the number of seizures” and the “effect on self-induced seizures” value [3] is given as “successfully terminated these self-induced seizures”. The “response of self-induced photosensitive seizures to treatment” value [4] was “responded to treatment”.
